In article PMC10086185, “Synthesis, radiolabeling, and evaluation of a (4-quinolinoyl)glycyl-2-cyanopyrrolidine analogue for fibroblast activation protein (FAP) PET imaging” (Frontiers in Bioengineering and Biotechnology, 2023):

Legend:
[1] = tested on: A549-FAPI cells (human FAP-expressing A549); assay: Cellular uptake of [^18F]3 in A549-FAPI cells; assay type: cell-based
Experimental: Briefly, all cells were divided into the following two groups: A: blocking group and B: vehicle group. All cells were cultured, grouped, and plated (approximately 2*10^6 cells per well) before use. Cells were treated with [^18F]3 (74 KBq) and incubated at 37°C under a 5% CO2 atmosphere. […] Incubated at 37°C for 1 h, the medium from each well was removed, and the cells were washed twice with 1 mL of PBS. The medium and the PBS from each well were combined and counted in a Gamma counter (PerkinElmer Wizard 2470) for radioactivity counts. The cells were then handled with 1 mL of 1 M NaOH, and the lysates were also counted in the Wizard 2470 gamma counter. The uptake ratios for each group were then calculated with this equation: %Dose = […](medium counts + PBS counts + cell lysate counts).

U87MG xenograft tumors = assay: Micro-PET/CT imaging, U87MG xenograft tumors; assay type: in vivo, BALB/c nude mice; conditions: U87MG xenografted tumors, within 90 min
Experimental: BALB/c nude mice used in this study were obtained from the Animal Center of Sichuan University. Tumor-bearing mouse models were established by the subcutaneous injection of 100 µL of PBS suspension containing approximately 1*10^6 tumor cells to the body side of the subjects. The tumor volume was monitored every day, and the tumor-bearing mice were ready for imaging once the tumor volume reached 0.5 mm^3 (tumor volume can be calculated by this equation: Volume = 0.5 * long tail * short tail *short tail). Micro-PET/CT imaging studies were performed on the IRIS Micro-PET/CT system (Inviscan SAS, France). Tumor-bearing mice were injected with approximately 11.2–14.8 MBq of [^18F]3 (200 µL) via the tail vein under anaesthetization by isoflurane. Static PET images were obtained at designated time points and were reconstructed with a 3D-OSEM algorithm using a Monte Carlo-based accurate detector model. Then, 170 sec-CT acquisition was conducted with 50 kV, 1 mA X-ray output for attenuation correction and anatomical orientation. […]
BALB/c nude mice used in this study were obtained from the Animal Center of Sichuan university. […] The tumor volume was monitored every day and the tumor-bearing mice were ready for imaging once the tumor volume reach 0.5 mm^3 (tumor volume can be calculated by this equation: Volume = 0.5 * long tail * short tail *short tail). […]

N#C[C@@H]1CC(F)(F)CN1C(=O)CNC(=O)c1ccnc2ccc([18F])cc12 [[^18F]3]
Cellular uptake ratio, blocking group ([1]; 1 h, pre-treatment with compound 3, 10 µM): 0.56% ± 0.03%
Cellular uptake ratio ([1]; 1 h incubation, vehicle group): 1.07% ± 0.01%
Tumor SUV (U87MG xenograft tumors): greater than 0.22
